From the NIST ThermoML archive (doi:10.1016/j.jct.2015.08.033)

Test: mn = molality of the nth substance listed, in mol/kg
Details: 100 kPa, Liquid; for speed of sound: Frequency=3 MHz, Sing-around technique in a fixed-path interferometer; for mass density: Vibrating tube method

O=S(=O)([O-])C(F)(F)F.O=S(=O)([O-])C(F)(F)F.[Mg+2] [magnesium triflate] + CC(=O)N(C)C
Details	mass density, 298.15 K [kg/m3]	mass density, 303.15 K [kg/m3]	mass density, 308.15 K [kg/m3]	mass density, 313.15 K [kg/m3]	mass density, 318.15 K [kg/m3]	speed of sound, 298.15 K [m/s]	speed of sound, 303.15 K [m/s]	speed of sound, 308.15 K [m/s]	speed of sound, 313.15 K [m/s]	speed of sound, 318.15 K [m/s]
m1 = 0.009142	938.272	933.667	929.056	924.433	919.8	1456.4	1436.7	1416.9	1397.2	1377.7
m1 = 0.01469	939.459	934.86	930.249	925.632	921.007	1456.7	1436.9	1417.2	1397.6	1378.1
m1 = 0.02251	941.134	936.55	931.947	927.333	922.714	1457	1437.3	1417.7	1398.1	1378.6
m1 = 0.03194	943.119	938.53	933.932	929.324	924.71	1457.4	1437.8	1418.2	1398.6	1379.2
m1 = 0.04489	945.817	941.246	936.655	932.054	927.445	1457.9	1438.3	1418.8	1399.3	1379.9
m1 = 0.05714	948.308	943.72	939.134	934.538	929.945	1458.3	1438.8	1419.3	1399.9	1380.6
m1 = 0.07138	951.266	946.705	942.126	937.537	932.941	1458.9	1439.4	1419.9	1400.6	1381.3
m1 = 0.08889	954.777	950.211	945.637	941.054	936.462	1459.5	1440.1	1420.7	1401	1382.1
m1 = 0.1071	958.463	953.905	949.338	944.772	940.1	1460	1440.7	1421.3	1401.9	1382.8
m1 = 0.1341	963.77	959.1	954.5	950	945.4	1460.7	1441.5	1422.3	1403.2	1384.2

O=S(=O)([O-])C(F)(F)F.O=S(=O)([O-])C(F)(F)F.[Ca+2] [calcium trifluoromethanesulfonate] + CN(C)C=O
Details	mass density, 298.15 K [kg/m3]	mass density, 303.15 K [kg/m3]	mass density, 308.15 K [kg/m3]	mass density, 313.15 K [kg/m3]	mass density, 318.15 K [kg/m3]	speed of sound, 298.15 K [m/s]	speed of sound, 303.15 K [m/s]	speed of sound, 308.15 K [m/s]	speed of sound, 313.15 K [m/s]	speed of sound, 318.15 K [m/s]
m1 = 0.01106	946.239	941.472	936.692	931.892	927.09	1457.3	1438.1	1418.8	1399.6	1380.3
m1 = 0.01878	947.845	943.075	938.305	933.505	928.705	1457.4	1438.2	1418.9	1399.7	1380.6
m1 = 0.02772	949.696	944.925	940.169	935.363	930.568	1457.4	1438.3	1419	1399.9	1380.8
m1 = 0.03952	952.113	947.355	942.581	937.793	932.985	1457.4	1438.3	1419.2	1400.1	1381.1
m1 = 0.05628	955.509	950.747	945.976	941.193	936.398	1457.5	1438.3	1419.2	1400.2	1381.2
m1 = 0.06961	958.2	953.444	948.677	943.893	939.103	1457.3	1438.3	1419.3	1400.3	1381.4
m1 = 0.08918	962.098	957.344	952.579	947.802	943.015	1457.1	1438.2	1419.2	1400.3	1381.5
m1 = 0.1114	966.493	961.744	956.98	952.205	947.419	1456.8	1438	1419.1	1400.3	1381.6
m1 = 0.1344	971.012	966.262	961.501	956.728	951.947	1456.6	1437.8	1419	1400.3	1381.6
m1 = 0.1671	977.356	972.601	967.839	963.068	958.29	1456.4	1437.6	1418.8	1400.2	1381.6

O=S(=O)([O-])C(F)(F)F.O=S(=O)([O-])C(F)(F)F.[Ca+2] [calcium trifluoromethanesulfonate] + CC(=O)N(C)C
Details	mass density, 298.15 K [kg/m3]	mass density, 303.15 K [kg/m3]	mass density, 308.15 K [kg/m3]	mass density, 313.15 K [kg/m3]	mass density, 318.15 K [kg/m3]	speed of sound, 298.15 K [m/s]	speed of sound, 303.15 K [m/s]	speed of sound, 308.15 K [m/s]	speed of sound, 313.15 K [m/s]	speed of sound, 318.15 K [m/s]
m1 = 0.02187	940.927	936.332	931.736	927.121	922.5	1457	1437.3	1417.6	1398	1378.6
m1 = 0.03271	943.201	938.61	934.019	929.41	924.794	1457.4	1437.8	1418.2	1398.7	1379.3
m1 = 0.04637	946.038	941.451	936.856	932.246	927.636	1458	1438.5	1419	1399.4	1380
m1 = 0.06551	949.951	945.373	940.788	936.196	931.596	1458.5	1439	1419.5	1400.2	1380.9
m1 = 0.08271	953.447	948.878	944.3	939.716	935.124	1459	1439.6	1420.2	1400.9	1381.7
m1 = 0.1052	957.976	953.415	948.847	944.27	939.688	1459.6	1440.3	1421	1401.8	1382.7
m1 = 0.1305	963.026	958.471	953.91	949.342	944.771	1460.3	1441	1421.8	1402.7	1383.7
m1 = 0.1577	968.401	963.856	959.304	954.745	950.183	1460.9	1441.8	1422.7	1403.7	1384.8
m1 = 0.1977	976.212	971.679	967.14	962.594	958.045	1461.8	1442.8	1423.9	1405	1386.2

O=S(=O)([O-])C(F)(F)F.O=S(=O)([O-])C(F)(F)F.[Sr+2] [strontium trifluoromethanesulfonate] + CC(=O)N(C)C
Details	mass density, 298.15 K [kg/m3]	mass density, 303.15 K [kg/m3]	mass density, 308.15 K [kg/m3]	mass density, 313.15 K [kg/m3]	mass density, 318.15 K [kg/m3]	speed of sound, 298.15 K [m/s]	speed of sound, 303.15 K [m/s]	speed of sound, 308.15 K [m/s]	speed of sound, 313.15 K [m/s]	speed of sound, 318.15 K [m/s]
m1 = 0.009611	938.686	934.078	929.46	924.833	920.199	1456.3	1436.5	1416.7	1397	1377.5
m1 = 0.01616	940.308	935.702	931.087	926.462	921.831	1456.5	1436.8	1417	1397.3	1377.8
m1 = 0.02452	942.361	937.757	933.142	928.518	923.888	1456.8	1437.1	1417.4	1397.8	1378.3
m1 = 0.0346	944.817	940.215	935.603	930.982	926.353	1456.9	1437.2	1417.5	1398	1378.6
m1 = 0.04877	948.237	943.637	939.026	934.407	929.78	1457.1	1437.5	1418	1398.6	1379.2
m1 = 0.06177	951.363	946.763	942.151	937.533	932.906	1457.3	1437.8	1418.3	1398.9	1379.7
m1 = 0.07813	955.261	950.663	946.052	941.432	936.806	1457.5	1438.1	1418.7	1399.3	1380.1
m1 = 0.09814	960.007	955.407	950.795	946.177	941.551	1457.7	1438.4	1419.1	1399.8	1380.7
m1 = 0.1176	964.581	959.98	955.367	950.748	946.121	1458	1438.8	1419.5	1400.3	1381.3
m1 = 0.1476	971.566	966.955	962.34	957.717	953.091	1458.3	1439	1419.8	1400.8	1381.8
